# In the kinase profiling compilation of Christmann-Franck et al. (2016):
# Values joined by “and” are separate entries in the source; they are usually repeats but may differ in a detail not shown here. Equal values may be shown once.
# Key:
# Assay in all cases: radiometric filter-binding kinase assay, Kinase HotSpot
# Conditions in all cases: compound 0.5 µM; ATP 10 µM
# HIPK1 (human) = HIPK1 (human) (UniProt Q86Z02)
# NEK11 (human) = NEK11 (human) (UniProt Q8NG66)
# FGFR3 (human) = FGFR3 (human) (UniProt P22607)
# PRKD1 (human) = PRKD1 (human) (UniProt Q15139)
# JAK3 JH1 JH2 (human) = JAK3 JH1 JH2 (human) (UniProt P52333)
# Sequence of JAK3 JH1 JH2 (human) (P52333 whole entry, looked up): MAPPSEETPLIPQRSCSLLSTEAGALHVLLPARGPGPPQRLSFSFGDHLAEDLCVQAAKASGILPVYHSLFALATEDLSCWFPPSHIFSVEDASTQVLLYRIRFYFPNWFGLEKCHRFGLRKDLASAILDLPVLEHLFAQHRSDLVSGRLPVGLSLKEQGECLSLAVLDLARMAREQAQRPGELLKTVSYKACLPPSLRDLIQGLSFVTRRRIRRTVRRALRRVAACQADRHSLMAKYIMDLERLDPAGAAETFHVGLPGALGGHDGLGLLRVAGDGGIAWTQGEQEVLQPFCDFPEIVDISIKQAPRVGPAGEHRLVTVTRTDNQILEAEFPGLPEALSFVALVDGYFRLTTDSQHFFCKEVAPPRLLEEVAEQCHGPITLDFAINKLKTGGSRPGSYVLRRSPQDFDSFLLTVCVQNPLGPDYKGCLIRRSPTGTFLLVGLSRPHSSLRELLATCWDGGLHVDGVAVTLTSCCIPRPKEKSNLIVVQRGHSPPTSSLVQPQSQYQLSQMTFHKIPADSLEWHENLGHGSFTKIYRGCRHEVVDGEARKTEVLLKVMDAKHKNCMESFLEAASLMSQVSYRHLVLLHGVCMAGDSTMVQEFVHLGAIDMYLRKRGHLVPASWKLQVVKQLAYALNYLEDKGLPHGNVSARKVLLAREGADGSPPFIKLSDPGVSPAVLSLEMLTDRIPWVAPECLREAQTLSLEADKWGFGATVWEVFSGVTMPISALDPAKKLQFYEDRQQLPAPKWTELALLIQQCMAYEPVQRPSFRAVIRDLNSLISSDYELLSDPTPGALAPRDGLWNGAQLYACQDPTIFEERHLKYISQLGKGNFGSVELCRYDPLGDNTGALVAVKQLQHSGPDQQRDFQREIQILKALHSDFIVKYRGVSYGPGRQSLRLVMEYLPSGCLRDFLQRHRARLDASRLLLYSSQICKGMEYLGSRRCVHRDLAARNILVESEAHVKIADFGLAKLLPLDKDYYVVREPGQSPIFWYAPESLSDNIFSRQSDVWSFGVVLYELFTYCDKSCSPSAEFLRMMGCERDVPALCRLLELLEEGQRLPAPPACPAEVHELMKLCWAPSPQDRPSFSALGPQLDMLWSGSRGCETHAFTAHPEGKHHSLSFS
# PRKD2 (human) = PRKD2 (human) (UniProt Q9BZL6)
# SLK (human) = SLK (human) (UniProt Q9H2G2)
# NTRK1 (human) = NTRK1 (human) (UniProt P04629)
# CAMK2G (human) = CAMK2G (human) (UniProt Q13555)
# EPHB3 (human) = EPHB3 (human) (UniProt P54753)
# Sequence of EPHB3 (human) (P54753 whole entry, looked up): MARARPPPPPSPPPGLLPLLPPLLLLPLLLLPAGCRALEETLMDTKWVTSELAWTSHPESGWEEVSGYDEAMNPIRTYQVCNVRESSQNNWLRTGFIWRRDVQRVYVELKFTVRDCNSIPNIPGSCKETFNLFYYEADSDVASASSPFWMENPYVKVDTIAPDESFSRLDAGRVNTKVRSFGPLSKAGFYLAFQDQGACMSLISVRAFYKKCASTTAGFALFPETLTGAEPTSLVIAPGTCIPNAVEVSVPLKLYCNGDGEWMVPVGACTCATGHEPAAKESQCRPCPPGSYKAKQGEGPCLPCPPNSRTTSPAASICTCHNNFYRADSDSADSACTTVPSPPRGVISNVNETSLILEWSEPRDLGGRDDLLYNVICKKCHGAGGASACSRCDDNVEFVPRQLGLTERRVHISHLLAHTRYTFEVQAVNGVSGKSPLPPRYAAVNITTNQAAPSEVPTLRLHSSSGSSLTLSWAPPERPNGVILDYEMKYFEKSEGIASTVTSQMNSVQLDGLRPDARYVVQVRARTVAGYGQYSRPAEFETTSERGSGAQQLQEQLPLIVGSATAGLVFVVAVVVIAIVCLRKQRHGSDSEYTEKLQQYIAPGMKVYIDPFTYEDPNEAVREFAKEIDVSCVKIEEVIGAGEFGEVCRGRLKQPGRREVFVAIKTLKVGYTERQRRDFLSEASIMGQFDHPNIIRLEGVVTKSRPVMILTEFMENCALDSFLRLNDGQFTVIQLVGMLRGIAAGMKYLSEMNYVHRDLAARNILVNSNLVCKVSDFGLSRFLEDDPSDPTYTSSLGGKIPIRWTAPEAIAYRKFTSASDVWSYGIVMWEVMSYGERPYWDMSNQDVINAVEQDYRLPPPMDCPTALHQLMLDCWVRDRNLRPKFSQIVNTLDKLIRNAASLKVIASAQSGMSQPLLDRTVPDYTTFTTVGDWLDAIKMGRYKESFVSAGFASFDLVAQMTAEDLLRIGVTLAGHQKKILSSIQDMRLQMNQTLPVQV
# MARK3 (human) = MARK3 (human) (UniProt P27448)
# MAPK12 (human) = MAPK12 (human) (UniProt P53778)
# EPHA2 (human) = EPHA2 (human) (UniProt P29317)
# PDGFRA (human) = PDGFRA (human) (UniProt P16234)
# SRPK3 (human) = SRPK3 (human) (UniProt Q9UPE1)
# DYRK1B (human) = DYRK1B (human) (UniProt Q9Y463)
# Sequence of DYRK1B (human) (Q9Y463 whole entry, looked up): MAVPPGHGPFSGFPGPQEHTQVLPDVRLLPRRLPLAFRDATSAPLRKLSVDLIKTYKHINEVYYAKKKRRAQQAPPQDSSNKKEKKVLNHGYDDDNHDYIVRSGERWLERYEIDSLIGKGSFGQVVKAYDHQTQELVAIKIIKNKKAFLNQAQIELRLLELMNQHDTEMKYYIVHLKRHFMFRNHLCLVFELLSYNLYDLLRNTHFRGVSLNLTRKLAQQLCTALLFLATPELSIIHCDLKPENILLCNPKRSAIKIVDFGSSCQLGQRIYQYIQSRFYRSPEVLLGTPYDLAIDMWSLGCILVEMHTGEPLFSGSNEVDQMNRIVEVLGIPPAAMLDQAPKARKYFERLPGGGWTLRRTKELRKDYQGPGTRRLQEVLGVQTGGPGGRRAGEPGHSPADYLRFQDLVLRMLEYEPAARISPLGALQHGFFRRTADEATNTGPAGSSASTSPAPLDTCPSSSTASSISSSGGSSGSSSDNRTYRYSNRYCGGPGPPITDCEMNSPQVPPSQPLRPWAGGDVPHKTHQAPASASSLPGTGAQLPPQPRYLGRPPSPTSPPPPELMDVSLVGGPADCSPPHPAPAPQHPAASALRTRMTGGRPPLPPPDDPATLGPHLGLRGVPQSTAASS
# GRK4 (human) = GRK4 (human) (UniProt P32298)
# HCK (human) = HCK (human) (UniProt P08631)
# DYRK2 (human) = DYRK2 (human) (UniProt Q92630)
# MET (human) = MET (human) (UniProt P08581)
# NTRK3 (human) = NTRK3 (human) (UniProt Q16288)
# NEK7 (human) = NEK7 (human) (UniProt Q8TDX7)
# Sequence of NEK7 (human) (Q8TDX7 whole entry, looked up): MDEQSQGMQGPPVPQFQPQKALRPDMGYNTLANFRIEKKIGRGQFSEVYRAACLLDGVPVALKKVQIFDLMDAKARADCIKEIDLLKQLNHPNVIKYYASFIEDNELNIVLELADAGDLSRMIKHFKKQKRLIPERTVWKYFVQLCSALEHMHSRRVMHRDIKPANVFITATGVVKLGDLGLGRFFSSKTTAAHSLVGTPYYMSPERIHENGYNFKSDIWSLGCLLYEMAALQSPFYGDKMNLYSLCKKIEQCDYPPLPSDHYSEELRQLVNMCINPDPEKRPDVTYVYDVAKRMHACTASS
# MAPK8 (human) = MAPK8 (human) (UniProt P45983)
# RPS6KB1 (human) = RPS6KB1 (human) (UniProt P23443)
# ACVR1 (human) = ACVR1 (human) (UniProt Q04771)
# Sequence of ACVR1 (human) (Q04771 whole entry, looked up): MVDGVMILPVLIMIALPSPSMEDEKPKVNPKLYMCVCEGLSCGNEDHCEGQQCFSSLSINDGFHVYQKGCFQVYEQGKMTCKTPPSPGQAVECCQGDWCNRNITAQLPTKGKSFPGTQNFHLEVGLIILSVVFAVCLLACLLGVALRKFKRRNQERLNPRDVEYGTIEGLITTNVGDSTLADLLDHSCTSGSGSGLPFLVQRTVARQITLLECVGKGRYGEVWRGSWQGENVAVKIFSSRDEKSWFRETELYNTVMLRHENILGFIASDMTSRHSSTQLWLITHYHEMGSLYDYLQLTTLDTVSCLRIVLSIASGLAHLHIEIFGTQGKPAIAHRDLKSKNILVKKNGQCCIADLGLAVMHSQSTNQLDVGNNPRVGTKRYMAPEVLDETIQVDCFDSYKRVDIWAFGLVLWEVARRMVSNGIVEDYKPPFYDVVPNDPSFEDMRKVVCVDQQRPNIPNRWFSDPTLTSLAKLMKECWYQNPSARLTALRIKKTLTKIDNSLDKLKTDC
# MAPKAPK5 (human) = MAPKAPK5 (human) (UniProt Q8IW41)
# RPS6KA1 KD1 KD2 (human) = RPS6KA1 KD1 KD2 (human) (UniProt Q15418)
# Sequence of RPS6KA1 KD1 KD2 (human) (Q15418 whole entry, looked up): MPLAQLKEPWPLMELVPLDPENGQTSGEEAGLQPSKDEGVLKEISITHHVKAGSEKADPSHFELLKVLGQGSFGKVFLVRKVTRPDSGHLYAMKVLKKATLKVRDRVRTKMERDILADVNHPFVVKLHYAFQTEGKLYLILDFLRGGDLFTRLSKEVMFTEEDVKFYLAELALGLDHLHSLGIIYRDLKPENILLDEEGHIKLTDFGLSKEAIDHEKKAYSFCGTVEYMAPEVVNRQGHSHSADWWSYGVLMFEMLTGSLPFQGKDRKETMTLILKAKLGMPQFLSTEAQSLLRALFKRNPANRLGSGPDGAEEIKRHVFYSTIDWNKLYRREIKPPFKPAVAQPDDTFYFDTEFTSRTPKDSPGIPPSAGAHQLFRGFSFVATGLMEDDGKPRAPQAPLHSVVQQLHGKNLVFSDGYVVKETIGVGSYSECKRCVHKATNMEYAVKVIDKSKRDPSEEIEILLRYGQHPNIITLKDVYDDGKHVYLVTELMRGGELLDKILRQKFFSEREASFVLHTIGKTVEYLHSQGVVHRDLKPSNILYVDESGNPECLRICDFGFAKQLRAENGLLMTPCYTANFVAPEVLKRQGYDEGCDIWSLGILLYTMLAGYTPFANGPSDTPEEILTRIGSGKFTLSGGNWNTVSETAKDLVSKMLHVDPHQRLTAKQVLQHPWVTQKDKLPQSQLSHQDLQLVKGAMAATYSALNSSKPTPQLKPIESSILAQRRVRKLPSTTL
# BRSK2 (human) = BRSK2 (human) (UniProt Q8IWQ3)
# PTK2 (human) = PTK2 (human) (UniProt Q05397)
# CSNK1A1 (human) = CSNK1A1 (human) (UniProt P48729)
# NLK (human) = NLK (human) (UniProt Q9UBE8)
# CAMK1G (human) = CAMK1G (human) (UniProt Q96NX5)
# CAMK1D (human) = CAMK1D (human) (UniProt Q8IU85)
# PNCK (human) = PNCK (human) (UniProt Q6P2M8)
# MINK1 (human) = MINK1 (human) (UniProt Q8N4C8)
# MST4 (human) = MST4 (human) (UniProt Q9P289)
# PRKCZ (human) = PRKCZ (human) (UniProt Q05513)
# DDR2 (human) = DDR2 (human) (UniProt Q16832)
# NEK1 (human) = NEK1 (human) (UniProt Q96PY6)
# TBK1 (human) = TBK1 (human) (UniProt Q9UHD2)
# PRKG1 (human) = PRKG1 (human) (UniProt Q13976)
# Sequence of PRKG1 (human) (Q13976 whole entry, looked up): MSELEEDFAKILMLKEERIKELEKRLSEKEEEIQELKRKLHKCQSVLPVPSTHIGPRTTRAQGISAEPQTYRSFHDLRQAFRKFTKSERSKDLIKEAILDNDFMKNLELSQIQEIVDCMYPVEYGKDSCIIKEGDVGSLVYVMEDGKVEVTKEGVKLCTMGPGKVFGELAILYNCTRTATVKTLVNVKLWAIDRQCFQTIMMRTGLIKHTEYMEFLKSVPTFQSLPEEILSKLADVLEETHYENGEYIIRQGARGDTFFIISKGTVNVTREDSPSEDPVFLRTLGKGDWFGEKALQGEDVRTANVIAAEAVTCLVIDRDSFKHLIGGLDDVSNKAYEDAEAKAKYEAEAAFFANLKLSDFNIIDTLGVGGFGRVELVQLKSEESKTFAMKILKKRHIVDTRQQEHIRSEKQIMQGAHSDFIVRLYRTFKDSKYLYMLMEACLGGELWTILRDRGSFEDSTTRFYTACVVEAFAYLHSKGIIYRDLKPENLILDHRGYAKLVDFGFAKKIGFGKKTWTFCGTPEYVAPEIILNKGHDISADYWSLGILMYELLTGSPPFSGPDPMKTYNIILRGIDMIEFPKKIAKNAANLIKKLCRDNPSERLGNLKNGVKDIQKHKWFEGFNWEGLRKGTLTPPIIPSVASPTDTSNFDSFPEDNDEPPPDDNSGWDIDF
# MAP3K3 (human) = MAP3K3 (human) (UniProt Q99759)
smiles,measurement,setting,value
COc1ccc(C(=O)Nc2sc3c(c2C(N)=O)CCCC3)cc1OC,residual activity,HIPK1 (human),90.2%
same,residual activity,NEK11 (human),102%
same,residual activity,FGFR3 (human),98.3%
same,residual activity,PRKD1 (human),99.6%
same,residual activity,JAK3 JH1 JH2 (human),108%
same,residual activity,PRKD2 (human),99.4%
same,residual activity,SLK (human),92.5%
same,residual activity,NTRK1 (human),104%
same,residual activity,CAMK2G (human),95.8%
same,residual activity,EPHB3 (human),92.4%
same,residual activity,MARK3 (human),94.1%
same,residual activity,MAPK12 (human),96.5%
same,residual activity,EPHA2 (human),102%
same,residual activity,PDGFRA (human),96.4%
same,residual activity,SRPK3 (human),92%
same,residual activity,DYRK1B (human),104%
same,residual activity,GRK4 (human),95.1%
same,residual activity,HCK (human),109%
same,residual activity,DYRK2 (human),92%
same,residual activity,MET (human),82.8%
same,residual activity,NTRK3 (human),57.7%
same,residual activity,NEK7 (human),99%
same,residual activity,MAPK8 (human),94.7%
same,residual activity,RPS6KB1 (human),84.3%
same,residual activity,ACVR1 (human),159%
same,residual activity,MAPKAPK5 (human),86.4%
same,residual activity,RPS6KA1 KD1 KD2 (human),87%
same,residual activity,BRSK2 (human),97.9%
same,residual activity,PTK2 (human),116%
same,residual activity,CSNK1A1 (human),108%
same,residual activity,NLK (human),93.7%
same,residual activity,CAMK1G (human),99.4%
same,residual activity,CAMK1D (human),93.8%
same,residual activity,PNCK (human),103%
same,residual activity,MINK1 (human),85%
same,residual activity,MST4 (human),96.6%
same,residual activity,PRKCZ (human),89.3%
same,residual activity,DDR2 (human),102%
same,residual activity,NEK1 (human),89.8%
same,residual activity,TBK1 (human),102%
same,residual activity,PRKG1 (human),87.5% and 97%
same,residual activity,MAP3K3 (human),100%
